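Tested at 5 concentrations; 48 h exposure; 96-well plates; endpoints linearly interpolated, else capped at highest concentration. GI50 marks 50% less growth. The concentration for full growth arrest is given as TGI.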
Columns and labels:
Experiment in all cases: NCI-60 cell line screen, 48 h
[1] = test system: SK-MEL-28 melanoma
[2] = test system: M14 melanoma
[3] = test system: HT29 colon
[4] = test system: SF-539 CNS
[5] = test system: ACHN renal
[6] = test system: CCRF-CEM leukemia
[7] = test system: MALME-3M melanoma
[8] = test system: EKVX NSCLC
[9] = test system: TK-10 renal
[10] = test system: BT-549 breast
[11] = test system: MCF7 breast
[12] = test system: SF-295 CNS
[13] = test system: SF-268 CNS
[14] = test system: RXF 393 renal
[15] = test system: COLO 205 colon
[16] = test system: UACC-257 melanoma
[17] = test system: SK-MEL-2 melanoma
[18] = test system: NCI-H522 lung
[19] = test system: SR leukemia
[20] = test system: RPMI-8226 leukemia
[21] = test system: OVCAR-4 ovarian
[22] = test system: MDA-MB-231 breast
[23] = test system: HS 578T breast
[24] = test system: HCT-116 colon
[25] = test system: SK-OV-3 ovarian
[26] = test system: SN12C renal
[27] = test system: SNB-19 CNS
[28] = test system: HL-60(TB) leukemia

Work on Cc1ccc2c(n1)C(=O)C(Cl)=C(Nc1cc(C(F)(F)F)cc(C(F)(F)F)c1)C2=O yielded a GI50 [1] of 2.21 µM, a TGI [1] of 4.29 µM and a GI50 [2] of 4.24 µM. It also gave a TGI [2] of 17.9 µM, a GI50 [3] of 2.39 µM and a TGI [3] of 6.18 µM. For the same molecule, the GI50 [4] was 5.4 µM, the TGI [4] was 18.3 µM and the GI50 [5] was 1.92 µM. The TGI [5] was 3.42 µM, the GI50 [6] was 0.651 µM and the TGI [6] was 3.59 µM. For the same molecule, the GI50 [7] was 1.67 µM, the TGI [7] was 3.58 µM and the GI50 [8] was 2.22 µM. For the same molecule, the TGI [8] was 5.45 µM, the GI50 [9] was 1.88 µM and the TGI [9] was 3.31 µM. It also gave a GI50 [10] of 1.86 µM, a TGI [10] of 6.61 µM and a GI50 [11] of 2.13 µM. The TGI [11] was 5.45 µM, the GI50 [12] was 12.6 µM and the TGI [12] was 25.8 µM. It also gave a GI50 [13] of 6.38 µM, a TGI [13] of 23.5 µM and a GI50 [14] of 1.46 µM. The TGI [14] was 2.82 µM, the GI50 [15] was 1.93 µM and the TGI [15] was 4.31 µM. The GI50 [16] was 1.68 µM, the TGI [16] was 3.3 µM and the GI50 [17] was 3.96 µM. For the same molecule, the TGI [17] was 15.6 µM, the GI50 [18] was 1.95 µM and the TGI [18] was 5.97 µM. The GI50 [19] was 0.31 µM, the TGI [19] was 1.98 µM and the GI50 [20] was 1.58 µM. For the same molecule, the TGI [20] was 5.14 µM, the GI50 [21] was 1.44 µM and the TGI [21] was 2.79 µM. The GI50 [22] was 3.54 µM, the TGI [22] was 14 µM and the GI50 [23] was 10.6 µM. It also gave a TGI [23] of 76.4 µM, a GI50 [24] of 1.43 µM and a TGI [24] of 2.94 µM. For the same molecule, the GI50 [25] was 13.9 µM, the TGI [25] was 27.1 µM and the GI50 [26] was 4.55 µM. It also gave a TGI [26] greater than 100 µM, a GI50 [27] of 13.8 µM and a TGI [27] of 40.1 µM. For the same molecule, the GI50 [28] was 0.547 µM and the TGI [28] was 2.58 µM.

Reference: PubChem BioAssay (NCI)
